Measurements from patent publication US6632981B1, “DNA sequences encoding polypeptides having beta-1,3-glucanase activity” (Novartis Finance Corporation, priority 1988, dated 2003).

Tests used:
[1] = system: chemically regulatable chimeric genes coding for GUS, AHAS or BT; experiment: Primer extension assay for mRNA of chemically regulatable chimeric genes; type: in vivo; details: callus or regenerated plant material from transgenic plants; level proportional to amount of regulator applied
Experimental: 50 g of total RNA is lyophilized in a 500 l Eppendorf tube. The RNA is resuspended in 30 l of radiolabeled probe solution and heated to 70′ C. for 10 minutes. The tube is slowly cooled to 37° C. and allowed to incubate overnight. Without removing the tube from the 37° C. water bath, 2 l of 10×reverse-transcriptase buffer (500 mM Tris-HCl, pH 7.5, 400 mM KCl, 30 mM MgCl2), 1 l 5 mg/ml bovine serum albumin, 5 l 100 mM dithiothreitol, 5 l 10×dNTPs (10 mM of each dNTP in H2O), 3 l H 20, 2 l RNasin (80 units), and 2 l reverse transcriptase (400 units) are added and the reaction is incubated at 37° C. for 30 minutes. To stop the reaction, 5 l of 3 M sodium acetate, pH 5, and 150 l absolute ethanol are added. The tube is left at −20° C. for 30 minutes, the precipitate is collected by centrifugation, washed with 80% ethanol and allowed to air-dry. The precipitate is resuspended in 10-20 l of loading dye (90% formamide, 0.05% bromophenol blue, 0.05% xylene cyanol, 1 mM EDTA) and the extension products are separated on a 6% sequencing gel (Maniatis, T. et al., supra). Extension products are visualized by autoradiography.
Plant materials induced and harvested as in Examples 140 to 142 are assayed for the induction of mRNA species by the isolation of RNA and the primer extension assay as described in Example 6.
The level of mRNA is proportional to the amount of regulator applied.

[2] = system: cucumber chitinase protein; experiment: Cucumber chitinase ELISA in transgenic plants carrying cucumber chitinase genomic constructs after leaf treatment; type: in vivo, tobacco; set-up: key: —: Indicates that sample has no detectable level of chitinase protein
Experimental: Once the transgenic plants are transferred to soil, they are grown 4-5 weeks before treatment. The following solutions are applied to the leaves with sterile paintbrushes:
3. Methyl benzo-1,2,3-thiadiazole-7-carboxylate. The solution is made by resuspending a wettable powder containing a formulation of the chemical with 25% active ingredient in sterile water at a concentration of 1 mg/ml.
4. Methyl 2,6-dichloroisonicotinate, prepared as above. Alternatively, 30 ul of 10 mM sodium phosphate buffer, pH 7.0, or 30 ul of the same buffer containing tobacco mosaic virus (50-100 pfu/30 ul) is applied to the leaves which have been sprinkled with carborundum. The buffers are distributed over the whole treated leaf by gentle rubbing.
The plants are allowed to continue to grow for seven days. The treated leaves are then harvested, frozen in liquid nitrogen and stored at −80° C. until they are assayed.
Frozen leaf tissue is ground in a mortar with a pestle in the presence of liquid nitrogen to produce a fine powder. 0.33 g of each tissue sample is added to 1 ml extraction buffer (50 mM Tris-HCl, pH 8.5, 0.2M 2-mercaptoethanol, 2 mM phenyl methyl sulfonyl fluoride, 2 mM benzamidine, 10 mM epsilon-aminocaproic acid, 1 mM leueptine) and the sample homogenized for one minute with an Ultra Turrax Mixer (shaft #S25N-8G, Tekmar Co. Cincinnati, Ohio). The samples are then centrifuged at 48,000×g for fifteen minutes at 4° C. and the supernatant removed from the pelleted material. The extracts are diluted at least 1:50 in ELISA diluent (101 mM sodium phosphate, pH 7.4, 140 mM sodium chloride, 0.05% Tween 20, 0.02% sodium azide, 1% BSA).
A microtiter plate is coated with monoclonal antibody specific to the cucumber chitinase protein at 2 ug/ml in borate-buffered saline (100 mM boric acid, 25mM sodium borate, 75 mM sodium chloride; pH 8.5) using 50 ul per well. The plate is incubated overnight at 4° C. The plate is washed with ELISA wash buffer (10 mM Tris-HCl, pH 8.0, 0.05% Tween 20, 3 mM sodium azide) and BSA blocking solution (10 mM sodium phosphate, pH 7.4, 140 mM sodium chloride, 0.02% sodium azide, 1% BSA) is added to completely cover each well. Incubation is for at least 30 minutes at room temperature.
The microtiter plate is washed with ELISA wash buffer and 50 ul of extract is added to the appropriate well. 50 ul of each of 10 chitinase protein standards (ranging from 0 ng/ml to 31.64 ng/ml) was also added to the appropriate well and the plate is incubated for two hours at 4° C. The plate is washed with ELISA wash buffer and 50 ul of rabbit polyclonal antibody to the cucumber chitainase protein (diluted 1:15,000 in ELISA diluent) is added to the well and incubated for one hour at 37° C. After washing with ELISA wash buffer, 50 ul of goat anti-rabbit conjugated to alkaline phosphatase (1:500 in ELISA diluent) is added to each well and incubated at 37° C. for one hour. The plate is then washed and 50 ul alkaline phosphatase substrate solution (0.6 mg/ml p-nitrophenyl phosphate in 0.5 mM magnesium chloride and 10% diethanolamine) is added to each well. After a 30 minute incubation at room temperature, 50 ul of 3N sodium hydroxide is added to each well to stop the reaction.
The plate is read at 405 nm and 492 nm on an HP Genenchem ELISA plate reader. The output values are expressed as A(405 nm)-A(492 nm)−0.092 to allow for correction of p-nitrophenyl phosphate as substrate. The chitinase standards for each plate are graphed logarithmically. The amount of chitinase protein in each sample is determined from the standard curve. If the amount of chitinase in any sample is close to the upper limit of the curve, the sample is assayed again at a greater dilution. Final results are expressed in the table below in ug chitinase per gram tissue.

COC(=O)c1cc(Cl)nc(Cl)c1 [MDCINA, Methyl 2,6-dichloroisonicotinate]
level of mRNA of the chimeric gene (GUS, AHAS or BT primer), primer extension assay [1]: elevated levels of mRNA
ELISA ASSAY RESULTS (ug chitinase/g tissue) ([2]; line Bam-1 (2001/BamChit), leaves harvested after seven days, water 0.066, buffer —): —
ELISA ASSAY RESULTS (ug chitinase/g tissue) ([2]; line Bam-3 (2001/BamChit), seven days, water —, buffer —): —
ELISA ASSAY RESULTS (ug chitinase/g tissue) ([2]; line Bam-4 (2001/BamChit), seven days, water —, buffer —): —
ELISA ASSAY RESULTS (ug chitinase/g tissue) ([2]; line Bam-8 (2001/BamChit), seven days, water —, buffer —): —
ELISA ASSAY RESULTS (ug chitinase/g tissue) ([2]; line Bam-9 (2001/BamChit), seven days, water —, buffer —): —
ELISA ASSAY RESULTS (ug chitinase/g tissue) ([2]; line Bam-10 (2001/BamChit), seven days, water 0.059, buffer 0.084): 2.378 ug chitinase/g tissue
ELISA ASSAY RESULTS (ug chitinase/g tissue) ([2]; line Bam-12 (2001/BamChit), seven days, water —, buffer —): —
ELISA ASSAY RESULTS (ug chitinase/g tissue) ([2]; line Bam-14 (2001/BamChit), seven days, water —, buffer —): —
ELISA ASSAY RESULTS (ug chitinase/g tissue) ([2]; line Bam-15 (2001/BamChit), seven days, water —, buffer —): —
ELISA ASSAY RESULTS (ug chitinase/g tissue) ([2]; line Bam-16 (2001/BamChit), seven days, water —, buffer —): 0.864 ug chitinase/g tissue
ELISA ASSAY RESULTS (ug chitinase/g tissue) ([2]; line Bam-17 (2001/BamChit), seven days, water —, buffer —): —
ELISA ASSAY RESULTS (ug chitinase/g tissue) ([2]; line Bam-19 (2001/BamChit), seven days, water —, buffer —): —
ELISA ASSAY RESULTS (ug chitinase/g tissue) ([2]; line Bam-21 (2001/BamChit), seven days, water —, buffer —): —
ELISA ASSAY RESULTS (ug chitinase/g tissue) ([2]; line Bam-23 (2001/BamChit), seven days, water —, buffer —): —
ELISA ASSAY RESULTS (ug chitinase/g tissue) ([2]; line Bam-24 (2001/BamChit), seven days, water —, buffer —): —
ELISA ASSAY RESULTS (ug chitinase/g tissue) ([2]; line Bam-25 (2001/BamChit), seven days, water —, buffer —): —
ELISA ASSAY RESULTS (ug chitinase/g tissue) ([2]; line Bam-26 (2001/BamChit), seven days, water —, buffer —): —
ELISA ASSAY RESULTS (ug chitinase/g tissue) ([2]; line Nco-2 (2001/NcoChit), seven days, water —, buffer —): —
ELISA ASSAY RESULTS (ug chitinase/g tissue) ([2]; line Nco-3 (2001/NcoChit), seven days, water —, buffer —): —
ELISA ASSAY RESULTS (ug chitinase/g tissue) ([2]; line Nco-5 (2001/NcoChit), seven days, water —, buffer —): —
ELISA ASSAY RESULTS (ug chitinase/g tissue) ([2]; line Nco-8 (2001/NcoChit), seven days, water —, buffer —): —
ELISA ASSAY RESULTS (ug chitinase/g tissue) ([2]; line Nco-9 (2001/NcoChit), seven days, water —, buffer —): —
ELISA ASSAY RESULTS (ug chitinase/g tissue) ([2]; line Nco-10 (2001/NcoChit), seven days, water —, buffer —): —
ELISA ASSAY RESULTS (ug chitinase/g tissue) ([2]; line Nco-11 (2001/NcoChit), seven days, water —, buffer —): —
ELISA ASSAY RESULTS (ug chitinase/g tissue) ([2]; line Nco-15 (2001/NcoChit), seven days, water —, buffer —): —
ELISA ASSAY RESULTS (ug chitinase/g tissue) ([2]; line Nco-16 (2001/NcoChit), seven days, water 0.555, buffer 0.566): 0.286 ug chitinase/g tissue
ELISA ASSAY RESULTS (ug chitinase/g tissue) ([2]; line Nco-17 (2001/NcoChit), seven days, water —, buffer —): —
ELISA ASSAY RESULTS (ug chitinase/g tissue) ([2]; line Sal-2 (2001/SalChit), seven days, water —, buffer —): —
ELISA ASSAY RESULTS (ug chitinase/g tissue) ([2]; line Sal-3 (2001/SalChit), seven days, water —, buffer —): 0.047 ug chitinase/g tissue
ELISA ASSAY RESULTS (ug chitinase/g tissue) ([2]; line Sal-4 (2001/SalChit), seven days, water —, buffer —): —
ELISA ASSAY RESULTS (ug chitinase/g tissue) ([2]; line Sal-5 (2001/SalChit), seven days, water —, buffer —): —
ELISA ASSAY RESULTS (ug chitinase/g tissue) ([2]; line Sal-7 (2001/SalChit), seven days, water —, buffer —): —
ELISA ASSAY RESULTS (ug chitinase/g tissue) ([2]; line Sal-8 (2001/SalChit), seven days, water —, buffer —): —
ELISA ASSAY RESULTS (ug chitinase/g tissue) ([2]; line Sal-9 (2001/SalChit), seven days, water —, buffer —): —
ELISA ASSAY RESULTS (ug chitinase/g tissue) ([2]; line Sal-11 (2001/SalChit), seven days, water —, buffer —): —
ELISA ASSAY RESULTS (ug chitinase/g tissue) ([2]; line Sal-12 (2001/SalChit), seven days, water —, buffer —): —
ELISA ASSAY RESULTS (ug chitinase/g tissue) ([2]; line Sal-13 (2001/SalChit), seven days, water —, buffer —): —
ELISA ASSAY RESULTS (ug chitinase/g tissue) ([2]; line Sal-14 (2001/SalChit), seven days, water —, buffer —): —
ELISA ASSAY RESULTS (ug chitinase/g tissue) ([2]; line Sal-15 (2001/SalChit), seven days, water —, buffer —): —
